Data taken from US11484032B2, “Compositions for inhibition of insect sensing” (Vanderbilt University, priority 2011, dated 2022).
pEC50: −log10 of the molar value. Like-named read-outs stand apart in the source and are kept apart here.

Experiments:
AgORco+AgOR10 = target: T1, AgORco+AgOR10 (Anopheles gambiae, UniProt Q7QCC7); experiment: Fluo-4 Ca2+ imaging, HEK293 cells expressing Orco+AgOR10; type: cell-based; set-up: Orco 10 + Orco Angatonist % Reduction / Orco 10 + Orco Agonist % of control: concentration or dose not given beside the values; conditions: for Orco 10 + Orco Angatonist % Reduction: antagonist mode; for Orco 10 + Orco Potentiator % increase: potentiator mode
T1 construct: expressed in transfected cells
T1 sequence (Q7QCC7 1-478): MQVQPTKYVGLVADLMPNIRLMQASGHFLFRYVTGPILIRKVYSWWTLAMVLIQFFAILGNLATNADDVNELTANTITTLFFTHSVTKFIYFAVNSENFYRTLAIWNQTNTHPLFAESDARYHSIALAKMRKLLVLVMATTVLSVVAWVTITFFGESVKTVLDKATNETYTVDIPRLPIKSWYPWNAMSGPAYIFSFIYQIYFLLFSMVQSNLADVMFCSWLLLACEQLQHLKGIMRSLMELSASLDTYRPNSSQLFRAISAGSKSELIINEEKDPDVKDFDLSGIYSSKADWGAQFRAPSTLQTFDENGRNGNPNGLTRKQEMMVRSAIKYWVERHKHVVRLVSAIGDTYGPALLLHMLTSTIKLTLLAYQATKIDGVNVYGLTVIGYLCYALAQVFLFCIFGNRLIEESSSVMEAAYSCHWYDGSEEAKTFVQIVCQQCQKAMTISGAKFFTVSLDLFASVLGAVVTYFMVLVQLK
From the text: (§1) For transient transfections, ORs were cloned into pCl (Promega) and transfected into Flp-In™ T-REx™293 cell lines (Invitrogen) with Fu GENE6 (Roche). For the creation of stable cell lines, a cell culture expression vector capable of expressing Orco in conjunction with a conventional OR, pcDNA5/FRT/TO (Invitrogen) was modified to create two individual expression cassettes each under the control of a separate CMV/Tet02 promoter and a BGH poly-adenylation signal. Cells (as above) were transfected with the modified pcDNA5 plasmid along with POG44 (a Flp recombinase expression plasmid) to facilitate site-specific recombination. Stable cell lines were selected using Hygromycin B (Invitrogen). Cells were maintained in DMEM (Invitrogen) supplemented with 10% Tetracycline-free FBS (HyClone) and 15 ng/ml Blasticidin. For fluorometric Ca2+ measurements, stable lines expressing ORs of interest were seeded at 20,000 cells/well in black wall, poly-lysine coated 384-well cell culture plates (Greiner) and treated with […] tetracycline (Sigma) overnight to induce OR expression. Cells were dye-loaded with 1.8 uM Fluo-4 AM (Molecular Probes), 2.5 mM Probenecid (Molecular Probes) in assay buffer (20 mM HEPES, IX HBSS) for 45 minutes at 37° C. in 5% CO2 prior to each assay. Ca^2+ mobilization was assayed in an FDSS6000 (Hamamatsu). Baseline readings were taken for 20 s before automated addition of compound previously diluted in DMSO and assay buffer. Ratios were described as Maximum/Minimum response and each response was normalized to the maximum responder.
As part of an ongoing, cell based calcium imaging screen for novel small-molecule modulators of AgORs that might disrupt olfactory-driven mosquito behaviors (Rinker et al manuscript in preparation), the inventors identified a number of compounds that activated AgOR10+AgORco-expressing human embryonic kidney (HEK293) cells. One of these compounds, (FIG. 3 A) denoted here as VUAA1, elicited activity consistent with allosteric agonism and was pursued for its novel properties. The identity of VUAA1 was verified using high-resolution mass spectrometry (HRMS) as well as ^1H and ^13C NMR. […] As AgORco was the common element among these functional responses, the inventors postulated that VUAA1 was a potential AgORco agonist.

AgORco+AgOR48 = target: T2, AgORco+AgOR48 (Anopheles gambiae, UniProt Q7QCC7); experiment: Ca2+ imaging, HEK cells expressing AgORco+AgOR48; type: cell-based; conditions: for pEC50: read-out: Orco + 48 Agonist EC50; for Orco + 48 Agonist EC50 (given only relative to VUAA1): comparison with VUAA1 in words; for Orco + 48 Agonist % value Of VUAA1: relative to VUAA1
T2 construct: expressed in transfected cells
T2 sequence (Q7QCC7 1-478): T1 sequence (Q7QCC7 1-478)
From the text: as §1
The ability of VUAA1 and its analogs to agonize representative ORco proteins from dipteran (Anopheles gambiae, AgORco), lepidopteran (Heliothis virescens, HvORco) and hymenopteran (Harpegnathos saltator, HsORco) orders was tested. […] Furthermore, the hierarchy of VUAA series potency was the same, irrespective of whether AgORco was co-expressed with AgOR65 or AgOR48 tuning ORs (FIG. 45). Without wishing to be bound by a particular theory, odorant ligands are thought to activate the complex via interaction with the tuning ORx and thereby affect ORco/ORx channel properties. […] These findings indicate VUAA-class OR co-modulators are viable compounds for further development as broad-spectrum insect control strategies, and VUAA4 can provide an advance in the pharmacological profile of VUAA-based compounds.

SMILES | Orco 10 + Orco Angatonist % Reduction (AgORco+AgOR10; Orco 10 + Orco) | also measured
O=C(CSc1nnc(-c2cccnc2)n1Cc1ccco1)c1ccc(Br)cc1 | 7.93% | –
CCn1c(SCC(=O)Nc2ccc(OCc3ccccc3)cc2)nnc1-c1ccco1 | 28.44% | –
O=C(CSc1nnc(-c2cccnc2)n1-c1ccccc1)c1c[nH]c2ccccc12 | – | Orco 10 + Orco Potentiator % increase (AgORco+AgOR10; Orco 10 + Orco): 13.63%
CCN(CC)S(=O)(=O)c1ccc(-c2nnc(SCC(=O)N3c4ccccc4CC3C)n2CC)cc1 (stereo not drawn) | 31.53% | –
CCn1c(SCC(=O)N2c3ccccc3CCc3ccccc32)nnc1-c1ccc(OC)cc1 | 41.48% | –
Clc1ccccc1CSc1nnc(-c2cccnc2)n1Cc1ccco1 | 33.76% | –
CCn1c(SCC(=O)Nc2ccc3c(c2)OCCO3)nnc1-c1c[nH]c2ccccc12 | 17.90% | –
Cc1ccc(-n2c(SCC(=O)NCc3ccco3)nnc2-c2cccnc2)c(C)c1 | 15.51% | –
CCn1c(SCCC(=O)Nc2ccc(C(C)C)cc2)nnc1-c1cccnc1 | – | pEC50 (AgORco+AgOR48; Orco + 48): 5.66
CCc1ccc(NC(=O)CSc2nnc(-c3ccncc3)n2CC)cc1 | – | Orco + 48 Agonist EC50 (given only relative to VUAA1) (AgORco+AgOR48; Orco + 48): <VUAA1; Orco + 48 Agonist % value Of VUAA1 (AgORco+AgOR48; Orco + 48): <VUAA1
CCOc1ccc(-n2c(SCc3cc(=O)oc4cc(C)c(C(C)C)cc34)nnc2-c2cccnc2)cc1 | 48.28% | –
CCc1ccc(NC(=O)CSc2nnc(-c3cccs3)n2CC)cc1 | 32.93% | –
CCCn1c(SCC(=O)Nc2ccc(C(C)C)cc2)nnc1-c1ccncc1 | – | pEC50 (AgORco+AgOR48; Orco + 48, agonist): 4.72
C=Cc1ccc(NC(=O)CSc2nnc(-c3ccncc3)n2CC)cc1 | – | Orco + 48 Agonist EC50 (given only relative to VUAA1) (AgORco+AgOR48; Orco + 48): <VUAA1; Orco + 48 Agonist % value Of VUAA1 (AgORco+AgOR48; Orco + 48): <VUAA1
CCn1c(CNC(=O)COc2ccc(C(C)C)cc2)nnc1SCC(=O)Nc1ccccc1F | 11.35% | –
O=C(CSc1nnc(-c2cccnc2)n1Cc1ccco1)N1c2ccccc2Sc2ccccc21 [drawing 497] | 53.70% | –
Cc1ccccc1-n1c(SCc2csc(Nc3ccccc3)n2)nnc1-c1cccnc1 | 56.98% | –
CCn1c(COc2ccccc2)nnc1SCC(=O)Nc1cc(OC)ccc1OC | 38.62% | –
CCn1c(COc2cccc(OC)c2)nnc1SCC(=O)Nc1ccccc1C(=O)OC | 72.23% | –
CCn1c(CNC(=O)COc2ccc(C(C)C)cc2)nnc1SCC(=O)Nc1ccccc1C(C)C | 44.74% | –
CCn1c(COc2ccc(C)cc2)nnc1SCC(=O)Nc1cc(OC)ccc1OC | 59.64% | –

SMILES | Orco 10 + Orco Angatonist % Reduction (AgORco+AgOR10; Orco 10 + Orco) | also measured
CCn1c(SCCC(=O)O)nnc1-c1cccnc1 | – | Orco 10 + Orco Potentiator % increase (AgORco+AgOR10; 10 + Orco): 15.74%
CCc1cccc(CC)c1NC(=O)CSc1nnc(C(C)C)n1CC | – | Orco 10 + Orco Potentiator % increase (AgORco+AgOR10; 10 + Orco): 13.90%
CCOC(=O)c1cccc(NC(=O)CSc2nnc(CNc3ccc(C)cc3)n2CC)c1 | 62.21% | –
COc1cc(Cl)c(C)cc1CSc1nnc(-c2cccnc2)n1Cc1ccco1 | 28.40% | –
CCn1c(COc2ccc(OC)cc2)nnc1SCC(=O)Nc1cc(OC)ccc1OC | 7.54% | –
CCn1c(CNC(=O)c2ccco2)nnc1SCC(=O)Nc1cc(C(F)(F)F)ccc1Cl | 15.97% | –
CCn1c(SCC(=O)Nc2ccccc2C(=O)OC)nnc1-c1cccc(C)c1 | 16.03% | –
CCn1c(SCC(=O)Nc2ccc(N(C)C)cc2)nnc1-c1cccc(C)c1 | 29.54% | –
CCn1c(SCC(=O)Nc2cc(C)ccc2C)nnc1-c1cnccn1 | – | Orco 10 + Orco Potentiator % increase (AgORco+AgOR10; Orco 10 + Orco): 21.48%
c1ccc(CSc2nnc(-c3cccnc3)n2Cc2ccccc2)cc1 | 16.73% | –
Cc1ccc(-n2c(SCC(=O)N3CCCc4ccccc43)nnc2-c2cccnc2)c(C)c1 | 26.04% | –
N#Cc1ccc(CSc2nnc(-c3cccnc3)n2-c2ccccc2)cc1 | 20.08% | –
CCn1c(COc2ccc3c(c2)CCCC3)nnc1SCC(=O)Nc1ccc(C(=O)OC)cc1 | – | Orco 10 + Orco Potentiator % increase (AgORco+AgOR10; Orco 10 + Orco): 18.19%
CCOC(=O)CN(C(=O)CSc1nnc(COc2ccc(OC)cc2)n1CC)c1ccccc1 | 49.09% | –
Cc1ccccc1-n1c(SC(C)C(N)=O)nnc1-c1cccnc1 (stereo not drawn) | – | Orco 10 + Orco Potentiator % increase (AgORco+AgOR10; Orco 10 + Orco): 16.98%
CC(C)c1ccccc1-n1c(SCc2cc(=O)oc3ccc4ccccc4c23)nnc1-c1cccnc1 | 26.15% | –
O=C(CSc1nnc(-c2cccnc2)n1-c1ccccc1)NCc1ccc2c(c1)OCO2 | – | Orco 10 + Orco Potentiator % increase (AgORco+AgOR10; Orco 10 + Orco): 16.29%
O=C(CSc1nnc(-c2cccnc2)n1-c1ccc(SC(F)F)cc1)N1CCCc2ccccc21 | 24.77% | –
CCn1c(COc2cccc(OC)c2)nnc1SCC(=O)Nc1cc(OC)ccc1OC | 30.79% | –
CCn1c(CNC(=O)COc2ccc(C(C)C)cc2)nnc1SCC(=O)Nc1ccccc1 | 13.06% | –
Cc1ccc(-n2c(SCC(=O)NCc3ccc4c(c3)OCO4)nnc2-c2cccnc2)c(C)c1 | 31.14% | –

SMILES | Orco 10 + Orco Angatonist % Reduction (AgORco+AgOR10; Orco 10 + Orco) | also measured
CCn1c(CNc2ccc(F)cc2)nnc1SCC(=O)N1CCCc2ccccc21 | 18.47% | –
CCn1c(SCC(=O)N2c3ccccc3CCc3ccccc32)nnc1-c1ccco1 | 13.40% | –
C=CCn1c(SCc2cccc3ccccc23)nnc1-c1cccnc1 | 13.43% | –
COc1cc(Cl)c(C)cc1NC(=O)CSc1nnc(-c2cccnc2)n1Cc1ccco1 | 25.31% | –
CCn1c(CNC(=O)COc2ccc(C(C)C)cc2)nnc1SCC(=O)Nc1cc(F)ccc1C | 31.15% | –
Cc1ccc(Nc2nc(CSc3nnc(-c4cccnc4)n3-c3ccccc3F)cs2)cc1 | 47.91% | –
CCOC(=O)CN(C(=O)CSc1nnc(CNc2ccc(F)cc2)n1CC)c1ccc(F)cc1 | 8.24% | –
CCOC(=O)CN(C(=O)CSc1nnc(CNc2ccc(C)cc2C)n1CC)c1ccccc1 | 57.34% | –
CC(C)c1ccccc1-n1c(SCC(=O)N2CCN(c3ccccc3)CC2)nnc1-c1cccnc1 | 42.29% | –
CCOc1ccccc1-n1c(SCC(=O)N2CCCc3ccccc32)nnc1-c1cccnc1 | 29.87% | –
Fc1ccc(CSc2nnc(-c3cccnc3)n2Cc2ccco2)cc1 | 16.64% | –
C=CCn1c(SCc2nc(N)nc(N(C)C)n2)nnc1-c1cccnc1 | – | Orco 10 + Orco Potentiator % increase (AgORco+AgOR10; Orco 10 + Orco): 17.15%
CCOc1ccc(-n2c(SCc3cc(=O)oc4cc(C)ccc34)nnc2-c2cccnc2)cc1 | 12.48% | –
CCCn1c(SCC(=O)NCCc2ccccc2)nnc1-c1cccnc1 | – | Orco 10 + Orco Potentiator % increase (AgORco+AgOR10; 10 + Orco): 12.58%
CCOC(=O)c1c(NC(=O)CSc2nnc(-c3cccnc3)n2Cc2ccco2)sc(C)c1C | 30.44% | –
Clc1ccc(CSc2nnc(-c3cccnc3)n2Cc2ccco2)c(Cl)c1 | 49.50% | –
O=C(CSc1nnc(-c2cccnc2)n1Cc1ccco1)N1c2ccccc2Sc2ccccc21 [drawing 490] | 46.34% | –
CCn1c(SCC(=O)Nc2ccc(OC)cc2)nnc1-c1ccc2[nH]c(C)c(C)c2c1 | 24.94% | –
Cc1ccc(Nc2nc(CSc3nnc(-c4cccnc4)n3-c3ccccc3C)cs2)cc1 | 52.47% | –
